From patent EP4647073A1, “MURRAYA KOENIGII IN THE TREATMENT OF UPPER RESPIRATORY TRACT INFECTIONS” (Nutraceutical Technology Pharma Biotech S.r.l., priority 2024, dated 2025)
Each block holds one compound with its values, some of them ahead of it.

Legend:
S. pyogenes = experiment: TTC assay (broth microdilution) for MIC and MBC determination; format: cell-based, Streptococcus pyogenes; conditions: for inhibition at 250 µg/mL (stock) / OD 480 nm (24 h) / OD 600 nm (24 h) / log10 (CFU/ml): duplicate wells
Method: Louis, MO) as colorimetric indicator. In the presence of living bacteria, the colourless TTC is reduced to red formazan. […] Two different stock solutions of M. koenigii leaves were prepared in DMSO at concentrations of 100 mg/ml (1:10) and 20 mg/ml (1:50). Two-fold dilution method was performed in order to obtain a concentration range of 0.04 mg/ml to 10 mg/ml for the 20 mg/ml stock solution and of 0.2 mg/ml to 50 mg/ml for the 100 mg/ml stock solution. An overnight anaerobic culture of S. pyogenes grown at 37°C was adjusted to a final concentration of 1x10^7 CFU/ml in M17 broth ([…] Abruzzi, Italy) and added to the microplate wells containing different concentrations of the extract, in order to obtain a final inoculum of approximately 1x10^6 CFU/well. The microplate was incubated at 37°C under anaerobic conditions for 24 h. […] To discriminate between bactericidal/bacteriostatic activity of the extract, 100 μl aliquots from each tested dilution were used to calculate the number of viable cells (CFU/ml) by plate count method and 10 μl aliquots from the same wells were streaked on M17 agar plates (Figure 3). […] TTC assay is depicted in Figure 4, where a picture of the microplate used for the TTC assay is reported. […] Table 2: Antibacterial activity of DMSO extract of M. koenigii leaves against S. pyogenes. All results are the mean of triplicates wells. […] Medium M17 (blank), positive control (S. pyogenes without M. koenigii), Ext. (Extract). A stock solution of amoxicillin (Sigma-Aldrich, St. Louis, USA) was prepared at a concentration of 0.25 mg/ml in DMSO. The antibacterial properties against S. pyogenes of the plant extract alone, amoxicillin alone and their combination were evaluated by TTC assay as mentioned above. For the experiment, the 20 mg/ml stock solution of M. koenigii leaves was used and a solution containing 0.25 mg/ml amoxicillin and 20 mg/ml extract was prepared.

S. pyogenes (ATCC 19615) = experiment: Agar well diffusion method, antibacterial activity; format: cell-based; conditions: Streptococcus pyogenes
Method: The agar well diffusion method was used for the assessment of the antibacterial activity of M. koenigii leaves against S. pyogenes (ATCC 19615). Six DMSO extracts of M. koenigii leaves from different geographical origins were tested. Antibacterial assay was performed on M17 agar ([…] Abruzzi, Italy). An overnight anaerobic culture of S. pyogenes grown at 37°C, was diluted in order to obtain a suspension containing approximately 1×10^8 CFU/ml. Each agar plate was spread with the microbial suspension. Using a sterile agar gel puncher, equidistant wells were created and filled with 0.1 ml of each sample. The plates were allowed to stand for 30 minutes to allow pre-diffusion of the tested samples, and thereafter incubated at 37°C for 24 h under anaerobic conditions. After incubation, the diameter of any zone of inhibition surrounding each well was measured. Each experiment was performed in triplicates and the means were calculated. […] Louis, USA). Each standard was weighed separately, solubilized in methanol and diluted in DMSO. […] Antibacterial assay was performed on M17 agar ([…] Abruzzi, 25 Italy). An overnight anaerobic culture of S. pyogenes, grown at 37°C, was diluted approximately to obtain 1×10^8 CFU/ml and spread on M17 agar. Using a sterile agar gel puncher, equidistant wells were created and filled with 0.1 ml of each extraction solvent. The plate was allowed to stand for 30 minutes to allow pre-diffusion of the tested samples, and thereafter incubated at 37°C. The zone of inhibition around each well was measured in mm.

[1] = Release of carbazole alkaloids from the chewing gum of Example 5 during chewing (HPLC/DAD of chewed bolus); format: in vivo, healthy adult volunteers; conditions: average of three chewers
Method: The chromatographic separation was performed by an HPLC/DAD system series 1200 from Agilent (Agilent Technologies, Santa […], California, USA); the analytical column was a Kinetex C18 5um, 100A (150 mm x 3.00 mm i.d.) from Phenomenex (Phenomenex SRL, Bologna; Italy) equipped with a security guard column. […] The elution of the analytes was carried out with a gradient method: initial condition was 40% of ACN, then brought to 90% in 10 minutes and kept for 8 minutes. […] An aliquot of each solution was withdrawn in order to prepare a mix standard solution and a calibration curve from 0.5 ppm to 4.0 ppm in MeOH was created for the quantification of samples. […] Each chewed bolus of the resulting 4 chewing tests, was frozen overnight and then weighed, ground and added with MeOH. The supernatant was filtered and analysed by HPLC/DAD. In Table 4 below, the release results are reported, being focused on the main actives of M. koenigii. Table 4: […]

[2] = Table 3, dilution 1:2 of stock (amoxicillin 0.25 mg/ml; mix 0.25 mg/ml amoxicillin and 20 mg/ml extract)
[3] = Table 3, dilution 1:4 of stock (amoxicillin 0.25 mg/ml; mix 0.25 mg/ml amoxicillin and 20 mg/ml extract)
[4] = Table 3, dilution 1:8 of stock (amoxicillin 0.25 mg/ml; mix 0.25 mg/ml amoxicillin and 20 mg/ml extract)
[5] = Table 3, dilution 1:16 of stock (amoxicillin 0.25 mg/ml; mix 0.25 mg/ml amoxicillin and 20 mg/ml extract)
[6] = Table 3, dilution 1:32 of stock (amoxicillin 0.25 mg/ml; mix 0.25 mg/ml amoxicillin and 20 mg/ml extract)
[7] = Table 3, dilution 1:64 of stock (amoxicillin 0.25 mg/ml; mix 0.25 mg/ml amoxicillin and 20 mg/ml extract)
[8] = Table 3, dilution 1:128 of stock (amoxicillin 0.25 mg/ml; mix 0.25 mg/ml amoxicillin and 20 mg/ml extract)

MIC (S. pyogenes; Streptococcus pyogenes, M17 broth, 37°C, anaerobic, 24 h): 16 µg/mL
SMILES: CC1(C)S[C@@H]2[C@H](NC(=O)[C@H](N)c3ccc(O)cc3)C(=O)N2[C@H]1C(=O)O [Amoxicillin, amoxicillin]
inhibition at 250 µg/mL (stock) (S. pyogenes; Streptococcus pyogenes, Table 3, dilution 1:2 of stock (amoxicillin 0.25 mg/ml; mix 0.25 mg/ml amoxicillin and 20 mg/ml extract)): 100%
inhibition at 250 µg/mL (stock) (S. pyogenes; Streptococcus pyogenes, Table 3, dilution 1:4 of stock (amoxicillin 0.25 mg/ml; mix 0.25 mg/ml amoxicillin and 20 mg/ml extract)): 100%
inhibition at 250 µg/mL (stock) (S. pyogenes; Streptococcus pyogenes, Table 3, dilution 1:8 of stock (amoxicillin 0.25 mg/ml; mix 0.25 mg/ml amoxicillin and 20 mg/ml extract)): 100%
inhibition at 250 µg/mL (stock) (S. pyogenes; Streptococcus pyogenes, Table 3, dilution 1:16 of stock (amoxicillin 0.25 mg/ml; mix 0.25 mg/ml amoxicillin and 20 mg/ml extract)): 48.6%
inhibition at 250 µg/mL (stock) (S. pyogenes; Streptococcus pyogenes, Table 3, dilution 1:32 of stock (amoxicillin 0.25 mg/ml; mix 0.25 mg/ml amoxicillin and 20 mg/ml extract)): 40.6%
inhibition at 250 µg/mL (stock) (S. pyogenes; Streptococcus pyogenes, Table 3, dilution 1:64 of stock (amoxicillin 0.25 mg/ml; mix 0.25 mg/ml amoxicillin and 20 mg/ml extract)): 41.5%
inhibition at 250 µg/mL (stock) (S. pyogenes; Streptococcus pyogenes, Table 3, dilution 1:128 of stock (amoxicillin 0.25 mg/ml; mix 0.25 mg/ml amoxicillin and 20 mg/ml extract)): 42%
MBC (S. pyogenes; Streptococcus pyogenes, M17 broth, 37°C, anaerobic, 24 h, complete inhibition of growth): 31 µg/mL
OD 480 nm (24 h) (S. pyogenes; [2]): 0.003
OD 600 nm (24 h) (S. pyogenes; [2]): 0.002
log10 (CFU/ml) (S. pyogenes; [2]): 0.00 log10 (CFU/ml)
OD 480 nm (24 h) (S. pyogenes; [3]): 0.001
OD 600 nm (24 h) (S. pyogenes; [3]): 0.011
log10 (CFU/ml) (S. pyogenes; [3]): 0.00 log10 (CFU/ml)
OD 480 nm (24 h) (S. pyogenes; [4]): 0.005
OD 600 nm (24 h) (S. pyogenes; [4]): 0.026
log10 (CFU/ml) (S. pyogenes; [4]): 0.00 log10 (CFU/ml)
OD 480 nm (24 h) (S. pyogenes; [5]): 0.057
OD 600 nm (24 h) (S. pyogenes; [5]): 0.088
log10 (CFU/ml) (S. pyogenes; [5]): 4.51 log10 (CFU/ml)
OD 480 nm (24 h) (S. pyogenes; [6]): 0.098
OD 600 nm (24 h) (S. pyogenes; [6]): 0.137
log10 (CFU/ml) (S. pyogenes; [6]): 5.20 log10 (CFU/ml)
OD 480 nm (24 h) (S. pyogenes; [7]): 0.120
OD 600 nm (24 h) (S. pyogenes; [7]): 0.158
log10 (CFU/ml) (S. pyogenes; [7]): 5.12 log10 (CFU/ml)
OD 480 nm (24 h) (S. pyogenes; [8]): 0.140
OD 600 nm (24 h) (S. pyogenes; [8]): 0.161
log10 (CFU/ml) (S. pyogenes; [8]): 5.08 log10 (CFU/ml)

SMILES: COc1cc2[nH]c3c4c(c(C)cc3c2cc1OC)OC(C)(C)C=C4 [Koenigicine]
zone of inhibition at 3 µg/mL (S. pyogenes (ATCC 19615); ATCC19615, standard at 3 µg/ml, 0.1 ml per well, M17 agar, 37°C): ~20 mm

SMILES: COc1ccc2[nH]c3c4c(c(C)cc3c2c1)OC(C)(C)C=C4 [Koenimbine]
zone of inhibition at 4 µg/mL (S. pyogenes (ATCC 19615); ATCC19615, standard at 4 µg/ml, 0.1 ml per well, M17 agar, 37°C): ~18 mm

SMILES: CC(C)=CCCC1(C)C=Cc2c(c(C)cc3c2[nH]c2ccccc23)O1 (centres unmarked) [Mahanimbine]
zone of inhibition at 6 µg/mL (S. pyogenes (ATCC 19615); ATCC19615, read-out: inhibition zone): ~20 mm
% release ([1]; chewing gum of Example 5, chewing time 0.0 min): 0.0%
% release ([1]; chewing gum of Example 5, chewing time 5.0 min): 54.7%
% release ([1]; chewing gum of Example 5, chewing time 10.0 min): 51.5%
% release ([1]; chewing gum of Example 5, chewing time 15.0 min): 59.7%
% release ([1]; chewing gum of Example 5, chewing time 20.0 min): 54.7%
